This is an account of results in patent publication US6538015B1, “Anti-HIV pyrazole derivatives” (Hoffmann-La Roche Inc., priority 2001, dated 2003).

Read-outs that look alike come from different tables or passages of the source.

One assay has as its target HIV-1 RT (Human immunodeficiency virus type 1 group M subtype B, UniProt P04585). Kind of assay: HIV-1 Reverse Transcriptase Assay: Inhibitor IC50 Determination. The class given is biochemical. The method, then: HIV-1 Reverse Transcriptase Assay: Inhibitor IC50 Determination
HIV-1 RT assay was carried out in 96-well Millipore filtermat NOB50 plates using purified recombinant enzyme and a poly(rA)/oligo(dT)16 template-primer in a total volume of 50 μL. The assay constituents were 50 mM Tris/HCl, 50 mM NaCl, 1 mM EDTA, 6 mM MgC2, 5 μM dTTP, 0.1 μCi [^3H] dTTP, 5 μg/ml poly (rA) pre annealed to 2.5 μg/ml oligo (dT)16 and a range of inhibitor concentrations in a final concentration of 10% DMSO. Reactions were initiated by adding 5 nM HIV-1 RT and after incubation at 37° C. for 30 min, they were stopped by the addition of 50 μl ice cold 20% TCA and allowed to precipitate at 4° C. for 30 min. The precipitates were collected by applying vacuum to the plate and sequentially washing with 2×200 μl of 10% TCA and 2×200 μl 70% ethanol. Finally the plates were dried and radioactivity counted in a Wallac Microbeta 1450 after the addition of 15 VI scintillation fluid per well. IC50's were calculated by plotting % inhibition versus log10 inhibitor concentrations.

For the next assay, the system named is HXB2-strain of HIV. The assay is described as follows: Antiviral assay: protection of HIV-infected MT4 cells from cell death (MTT). The assay is classed as cell-based. The settings on record: Human immunodeficiency virus 1, 120 h; MT4 cells infected with HXB2-strain of HIV, 5 d, MTT cell viability. The method, then:
Anti-HIV antiviral activity was assessed using an adaptation of the method of Pauwels et al. {Pauwels et al., 1988, J Virol Methods 20:309-321}. The method is based on the ability of compounds to protect HIV-infected T lymphoblastoid cells (MT4 cells) from cell-death mediated by the infection. The endpoint of the assay was calculated as the concentration of compound at which the cell viability of the culture was preserved by 50% (‘50% inhibitory concentration’, IC50). The cell viability of a culture was determined by the uptake of soluble, yellow 3-[4,5-dimethylthiazol-2-yl]-2,5-diphenyltetrazolium bromide (MTT) and its reduction to a purple insoluble formazan salt. After solubilization, spectrophotometric methods were employed to measure the amount of formazan product.
MT4 cells were prepared to be in logarithmic-phase growth and a total of 2×10^6 cells infected with the HXB2-strain of HIV at a multiplicity of 0.0001 infectious units of virus per cell in a total volume of between 200-500 microliters. The cells were incubated with virus for one h at 37° C. before removal of virus. The cells are then washed in 0.01 M phosphate buffered saline, pH 7.2 before being resuspensed in culture medium for incubation in culture with serial dilutions of test compound. The culture medium used was RPMI 1640 without phenol red, supplemented with penicillin, streptomycin, L-glutamine and 10% fetal calf serum (GM10).
Test compounds were prepared as 2 mM solutions in dimethyl sulphoxide (DMSO). Four replicate, serial 2-fold dilutions in GM10 were then prepared and 50 microliters amounts placed in 96-well plates over a final nanomolar concentration range of 625-1.22. Fifty microliters GM10 and 3.5×10^4 infected cells were then added to each well. Control cultures containing no cells (blank), uninfected cells (100% viability; 4 replicates) and infected cells without compound (total virus-mediated cell death; 4 replicates) were also prepared. The cultures were then incubated at 37° C. in a humidified atmosphere of 5% CO2 in air for 5 d.
A fresh solution of 5 mg/mL MTT was prepared in 0.01 M phosphate buffered saline, pH 7.2 and 20 microliters added to each culture. The cultures were further incubated as before for 2 h. They were then mixed by pipetting up and down and 170 microliters of Triton X-100 in acidified isopropanol (10% v/v Triton X-100 in 1:250 mixture of concentrated HCl in isopropanol). When the formazan deposit was fully solubilized by further mixing, the absorbance (OD) of the cultures was measured at 540 nm and 690 nm wavelength (690 nm readings were used as blanks for artefacts between wells). The percent protection for each treated culture can be calculated from the equation: [formula]

[1] abbreviates: purified recombinant enzyme, poly(rA)/oligo(dT)16 template-primer, 37° C. 30 min, read-out: RT IC50/nM.

In the case of `CC(C)n1nc(CO)c(Cc2ccncc2)c1Sc1cc(Cl)cc(Cl)c1`, the figures for the IC50 at HIV-1 RT (setting [1]) and with HXB2-strain of HIV were 62 nM and 1.3 nM, respectively. Turning to `CC(C)n1nc(COC(N)=O)c(Cc2ccncc2)c1Sc1cc(Cl)cc(Cl)c1`, the IC50 turned out to be 32 nM on HIV-1 RT and 1 nM in the assay on HXB2-strain of HIV. Take `CC(C)n1nc(CN)c(Cc2ccncc2)c1Sc1cc(Cl)cc(Cl)c1`: the values for the IC50 on HIV-1 RT (setting [1]) and in the assay with HXB2-strain of HIV were 714 nM and 7 nM, respectively. For the molecule `CC(C)n1nc(CNC(N)=O)c(Cc2ccncc2)c1Sc1cc(Cl)cc(Cl)c1`, the IC50 at HIV-1 RT (setting [1]) was 44 nM; in the assay on HXB2-strain of HIV it was 1 nM. For `CC(C)n1nc(CNS(C)(=O)=O)c(Cc2ccncc2)c1Sc1cc(Cl)cc(Cl)c1`, on HIV-1 RT (setting [1]), the IC50 is 7920 nM.

In the case of `COC(=O)NCc1nn(C(C)C)c(Sc2cc(Cl)cc(Cl)c2)c1Cc1ccncc1`, the IC50 on HIV-1 RT (setting [1]) amounted to 525 nM. With `CC(C)n1nc(COC(N)=O)c(COCc2ccncc2)c1Sc1cc(Cl)cc(Cl)c1`, the IC50 came to 99 nM at HIV-1 RT (setting [1]) and 13 nM in the assay with HXB2-strain of HIV.

For the molecule `CCn1nc(CO)c(Cc2ccncc2)c1Sc1cc(Cl)cc(Cl)c1`, the IC50 at HIV-1 RT (setting [1]) came out at 183 nM; with HXB2-strain of HIV, 30 nM. The matching figures for `CC(C)n1nc(CO)c(Cc2cccs2)c1Sc1cc(Cl)cc(Cl)c1`: 434 nM and 93 nM.

`CC(C)n1nc(CO)c(Cc2ccncc2)c1Sc1cc(F)cc(F)c1`: the IC50 on HIV-1 RT (setting [1]) turned out to be 206 nM; in the assay with HXB2-strain of HIV, 6 nM. Regarding `CC(C)n1nc(COC(N)=O)c(Cc2cccs2)c1Sc1cc(Cl)cc(Cl)c1`, the IC50 at HIV-1 RT (setting [1]) stood at 211 nM; in the assay with HXB2-strain of HIV, 30 nM. Take `CC(C)n1nc(COC(N)=O)c(Cc2ccncc2)c1Sc1cc(Cl)cc(Br)c1`: the values for the IC50 at HIV-1 RT (setting [1]) and in the assay with HXB2-strain of HIV were 31 nM and 3 nM, respectively. For the molecule `Cc1ncc(Br)c(Cc2c(CO)nn(C(C)C)c2Sc2cc(Cl)cc(Cl)c2)n1`, the IC50 at HIV-1 RT (setting [1]) was found to be 518 nM. `COc1cc(Cc2c(CO)nn(C(C)C)c2Sc2cc(Cl)cc(Cl)c2)ccn1`: the IC50 amounted to 51 nM at HIV-1 RT (setting [1]) and 38 nM with HXB2-strain of HIV. Take `CC(C)n1nc(CO)c(Cc2ccc(F)c(F)c2)c1Sc1cc(Cl)cc(Cl)c1`: the IC50 at HIV-1 RT (setting [1]) was found to be 123 nM.

As to `CCc1c(COC(N)=O)nn(C(C)C)c1Sc1cc(Cl)cc(Cl)c1`, the IC50 at HIV-1 RT (setting [1]) came out at 61 nM. On the same count and under the same terms, the figure for `CC(C)n1nc(COC(N)=O)c(CO)c1Sc1cc(Cl)cc(Cl)c1` is 6300 nM; for `CC(C)n1nc(CO)c(COCc2cccc(C#N)c2)c1Sc1cc(Cl)cc(Cl)c1` it is 250 nM.
